In patent publication EP0730590B1, “ISOXAZOLINE AND ISOXAZOLE FIBRINOGEN RECEPTOR ANTAGONISTS” (Dupont Pharmaceuticals Company, priority 1993, dated 1995):

Target: human platelet rich plasma (Homo sapiens, UniProt P05106+P08514)
Test: Platelet Aggregation Assay, ester prodrugs preincubated with porcine liver esterase
Type: cell-based
Settings: platelet rich plasma (PRP)
Experimental: Aliquots are then diluted in 0.1 M Tris, pH 7.4, to the desired concentrations. Aliquots of 20 µl of the esterase pretreated prodrugs are added to 200 µl of human platelet rich plasma. […] Platelet aggregation was allowed to proceed for 5 minutes. Percent inhibition is calculated using percent aggregation in the presence of the test compound divided by percent aggregation of control, times 100. This value is subtracted from 100, yielding percent inhibition. Calculation of IC50 is performed on a Texas Instruments TI59 with an IC50 program.

human platelet rich plasma, sequence (P08514 with tags, fused parts or gaps): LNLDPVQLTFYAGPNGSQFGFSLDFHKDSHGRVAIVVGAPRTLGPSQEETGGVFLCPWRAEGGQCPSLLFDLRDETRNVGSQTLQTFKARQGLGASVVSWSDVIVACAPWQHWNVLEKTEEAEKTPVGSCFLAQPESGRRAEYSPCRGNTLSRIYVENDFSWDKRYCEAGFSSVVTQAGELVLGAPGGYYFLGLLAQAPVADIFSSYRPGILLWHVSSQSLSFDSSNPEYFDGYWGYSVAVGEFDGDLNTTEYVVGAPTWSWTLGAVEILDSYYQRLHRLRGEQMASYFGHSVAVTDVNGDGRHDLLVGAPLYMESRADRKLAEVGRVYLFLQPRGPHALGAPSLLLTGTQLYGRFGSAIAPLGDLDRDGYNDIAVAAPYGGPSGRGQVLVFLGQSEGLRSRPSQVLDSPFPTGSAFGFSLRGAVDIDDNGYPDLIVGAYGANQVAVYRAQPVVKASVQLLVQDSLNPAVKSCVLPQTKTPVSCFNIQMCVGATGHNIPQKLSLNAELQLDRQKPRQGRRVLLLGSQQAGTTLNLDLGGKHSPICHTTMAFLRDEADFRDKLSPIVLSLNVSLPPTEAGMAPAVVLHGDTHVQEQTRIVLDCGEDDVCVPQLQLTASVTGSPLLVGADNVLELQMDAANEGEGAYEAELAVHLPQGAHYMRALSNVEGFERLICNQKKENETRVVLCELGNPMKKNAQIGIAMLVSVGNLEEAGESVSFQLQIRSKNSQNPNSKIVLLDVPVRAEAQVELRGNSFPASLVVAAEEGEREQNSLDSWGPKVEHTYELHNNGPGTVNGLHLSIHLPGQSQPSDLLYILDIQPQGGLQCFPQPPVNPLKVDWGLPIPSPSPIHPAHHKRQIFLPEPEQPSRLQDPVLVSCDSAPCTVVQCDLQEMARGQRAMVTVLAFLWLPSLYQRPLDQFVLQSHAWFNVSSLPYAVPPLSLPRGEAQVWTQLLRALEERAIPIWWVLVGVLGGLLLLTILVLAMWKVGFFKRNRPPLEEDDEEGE
human platelet rich plasma, sequence (P05106 27-788): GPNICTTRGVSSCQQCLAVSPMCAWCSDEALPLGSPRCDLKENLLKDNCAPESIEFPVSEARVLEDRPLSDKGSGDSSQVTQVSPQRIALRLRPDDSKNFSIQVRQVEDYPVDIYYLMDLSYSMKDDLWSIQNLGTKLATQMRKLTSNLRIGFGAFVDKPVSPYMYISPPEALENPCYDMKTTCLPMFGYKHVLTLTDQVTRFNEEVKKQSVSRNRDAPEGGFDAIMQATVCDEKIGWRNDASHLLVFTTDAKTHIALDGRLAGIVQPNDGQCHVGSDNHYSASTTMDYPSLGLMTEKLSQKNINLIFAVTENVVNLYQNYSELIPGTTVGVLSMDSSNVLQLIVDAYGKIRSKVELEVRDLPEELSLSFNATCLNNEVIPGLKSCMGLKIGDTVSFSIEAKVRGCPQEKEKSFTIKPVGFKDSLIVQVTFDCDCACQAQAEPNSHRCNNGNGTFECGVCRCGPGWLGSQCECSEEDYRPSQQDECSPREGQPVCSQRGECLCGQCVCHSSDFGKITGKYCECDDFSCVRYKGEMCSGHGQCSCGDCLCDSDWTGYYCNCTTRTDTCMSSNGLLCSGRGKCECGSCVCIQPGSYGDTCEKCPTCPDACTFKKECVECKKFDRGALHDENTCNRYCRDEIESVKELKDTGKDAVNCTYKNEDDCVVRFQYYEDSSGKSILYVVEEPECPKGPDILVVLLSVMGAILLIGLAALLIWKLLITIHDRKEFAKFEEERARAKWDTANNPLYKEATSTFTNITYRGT

| Compound | IC50 |
| --- | --- |
| COC(=O)C(CNC(=O)CC1CC(c2ccc(C(=N)N)cc2)=NO1)NC(=O)c1ccc(-c2ccccc2)cc1 (stereo not shown) [Example 523] | < 10 µM |
| Methyl N^2-(m-toluenesulfonyl)-N^3-[3-(2-amidinopyrid-5-yl)isoxazolin-5-ylacetyl]-S-2,3-diaminopropionate bis hydrochloric acid salt [Example 516] | < 10 µM |
| Methyl N^2-(m-toluenesulfonyl)-N^3-[3-(3-amidinopyrid-6-yl)isoxazolin-5-ylacetyl]-S-2,3-diaminopropionate bis hydrochloric acid salt [Example 514] | < 10 µM |
| Methyl N^2-(n-butyloxycarbonyl)-N^3-[3-(3-amidinopyrid-6-yl) isoxazolin-5-ylacetyl]-S-2,3-diaminopropionate bis hydrochloric acid salt [Example 513] | < 10 µM |
| COC(=O)C(CNC(=O)CC1CC(c2ccc(C(=N)N)cc2)=NO1)NS(=O)(=O)c1ccc(-c2ccccc2)cc1 (stereo not shown) [Example 546] | < 10 µM |
| Methyl N^2-(n-butyloxycarbonyl)-N^3-[3-(2-amidinopyrid-5-yl) isoxazolin-5-ylacetyl]-S-2,3-diaminopropionate bis hydrochloric acid salt [Example 515] | < 10 µM |

Target: agonist-induced platelet aggregation (Homo sapiens, UniProt P05106+P08514)
Sequence (P08514 with tags, fused parts or gaps): as the sequence (P08514 with tags, fused parts or gaps) above
Sequence (P05106 27-788): as the sequence (P05106 27-788) above
Test: Platelet Aggregation Assay in platelet-rich plasma (PRP)
Type: cell-based
Settings: without esterase
Experimental: Platelet Aggregation Assay: Venous blood was obtained from the arm of a healthy human donor who was drug-free and aspirin-free for at least two weeks prior to blood collection. Blood was collected into 10 ml citrated Vacutainer tubes. The blood was centrifuged for 15 minutes at 150 x g at room temperature, and platelet-rich plasma (PRP) was removed. The remaining blood was centrifuged for 15 minutes at 1500 x g at room temperature, and platelet-poor plasma (PPP) was removed. Samples were assayed on a aggregometer (PAP-4 Platelet Aggregation Profiler), using PPP as the blank (100% transmittance). 200 µl of PRP was added to each micro test tube, and transmittance was set to 0%. 20 µ of various agonists (ADP, collagen, arachidonate, epinephrine, thrombin) were added to each tube, and the aggregation profiles were plotted (% transmittance versus time). The results are expressed as % inhibition of agonist-induced platelet aggregation. For the IC50 evaluation, the test compounds were added at various concentrations prior to the activation of the platelets.
Table A below sets forth the antiplatelet activity of representative compounds of the present invention. The indicated compounds were tested for their ability to inhibit platelet aggregation (using platelet rich plasma (PRP)). […]

| Compound | IC50 |
| --- | --- |
| O=C(O)CCCN1C(=O)CC2(CC(CCCC3CCNCC3)=NO2)C1=O (stereo not shown) [Example 373] | 10 to 50 µM |
